# In article PMC10537604, “Development and Assessment of 1,5–Diarylpyrazole/Oxime Hybrids Targeting EGFR and JNK–2 as Antiproliferative Agents: A Comprehensive Study through Synthesis, Molecular Docking, and Evaluation” (Molecules, 2023):
# pIC50: −log10 of the molar value.
# What was measured:
# [1] = test system: human myelogenous leukemia cell line K562; test: WST-8 antiproliferative assay, K562; format: cell-based; settings: Homo sapiens, K562, WST-8 assay; for inhibition at 100 µM: read-out: Growth Inhibition (GI%) K562
# Description: (§1) Compounds 7a–j, 8a–j, 9a–c, and 10a–c were evaluated for in vitro anticancer activities against five different cancer cell lines, namely, human colorectal adenocarcinoma cell lines DLD-1, human cervical cancer cell line Hela, human pancreatic cancer cell line SUIT-2, human myelogenous leukemia cell line K562, and human hepatocellular carcinoma cell line HepG2 using WST-8 assay at concentrations of 100 µM to investigate the growth inhibition percent (GI%) of each compound using daunorubicin as a reference drug. […]. […] So, as a conclusion on the SAR study of those compounds as antiproliferative agents, the oxime moiety potentiated the anticancer activity and electron donating groups on R1 and R2 played an important role on this activity. Moreover, the sulfamoyl moiety on R3 seems to play a potential role in the activity of the prepared compounds (Table 1).
# (§2) All selected compounds and daunorubicin were recorded as the minimum concentration required to inhibit half cell growth (IC50) and the results are listed in Table 2.
# (§3) Evaluation of anticancer activity was performed according to the standard water-soluble tetrazolium-8 (WST-8) assay at the Faculty of Engineering, Yamagata University, Yonezawa, Japan, using an MTP-310 absorbance microplate reader. The EGFR inhibitory assay was carried out at the Faculty of Engineering, Yamagata University, Yonezawa, Japan, according to the protocol enzyme linked immunosorbent assay (ELISA) kits (Douset sandwich ELISA test, recombinant mouse EGFR). The JNK-2 inhibitory assay was performed at the Faculty of Engineering, Yamagata University, Yonezawa, Japan, according to the protocol of enzyme-linked immunosorbent assay (ELISA), the assay was carried out using the JNK-2 kit (Simple Step ELISA, pT183/Y185, Abcam Company, Cambridge, CB2 0AX, UK). Apoptosis and cell cycle analysis was performed at Faculty of medicine, Yamagata University, Yamagata, Japan, using BD FACS melody. Molecular docking was performed at the Nano Medical Engineering Laboratory, RIKEN Cluster for Pioneering Researchers, RIEKN, Japan, using ICM-Pro 3.8 software (MolSoft L.L.C., San Diego, CA, USA).
# (§4) According to the standard water-soluble tetrazolium-8 (WST-8) assay, the current synthesized compounds have been tested for their anticancer activities against different five cancer cell lines; DLD-1, Hela, K562, SUIT-2, and HepG2 and daunorubicin was used as reference drug by the WST-8 assay. The five cells were maintained in a suspension culture, (Dulbecco’s modified eagle medium (DMEM) for SUIT-2, Hela, and HepG2 or PRIM for K562 and DLD), supplemented with 5% FBS (Fetal Bovine Serum) containing 1% of a penicillin-streptomycin (1:1) mixture. A 100 μL aliquot of cells (10,000 cells/mL) was added to a 96 well plate and incubated for 24 h at 37 °C in a humidified incubator containing 5% CO2 in the air. […] Then A 10 μL WST-8 solution (mixture of WST-8 and 1-methoxy PMS) was added to each well and the incubation continued for 3 h. The visible absorbance at 450 nm and 630 nm as the reference wavelength of each well was quantified using an MTP-310 absorbance microplate reader. Daunorubicin was used as a positive control. The results of cytotoxicity were recorded as growth inhibition percentages and as IC50 values.
# [2] = test system: human hepatocellular carcinoma cell line HepG2; test: WST-8 antiproliferative assay, HepG2; format: cell-based; settings: HepG2, 100 µM, WST-8 assay, read-out: Growth Inhibition (GI%) HepG2
# Description: as §1, §2, §3
# (§5) According to the standard water-soluble tetrazolium-8 (WST-8) assay, the current synthesized compounds have been tested for their anticancer activities against different five cancer cell lines; DLD-1, Hela, K562, SUIT-2, and HepG2 and daunorubicin was used as reference drug by the WST-8 assay. The five cells were maintained in a suspension culture, (Dulbecco’s modified eagle medium (DMEM) for SUIT-2, Hela, and HepG2 or PRIM for K562 and DLD), supplemented with 5% FBS (Fetal Bovine Serum) containing 1% of a penicillin-streptomycin (1:1) mixture. A 100 μL aliquot of cells (10,000 cells/mL) was added to a 96 well plate and incubated for 24 h at 37 °C in a humidified incubator containing 5% CO2 in the air. After 24 h, a 10 μL aliquot of test compound (concentrations varying in the range of 10–150 µM) was added to each of the 96 wells and incubated for 24 h. Then A 10 μL WST-8 solution (mixture of WST-8 and 1-methoxy PMS) was added to each well and the incubation continued for 3 h. The visible absorbance at 450 nm and 630 nm as the reference wavelength of each well was quantified using an MTP-310 absorbance microplate reader. Daunorubicin was used as a positive control. The results of cytotoxicity were recorded as growth inhibition percentages and as IC50 values.
# [3] = test system: human cervical cancer cell line Hela; test: WST-8 antiproliferative assay, Hela; format: cell-based; settings: WST-8 assay; for inhibition at 100 µM: read-out: Growth Inhibition (GI%) Hela; for pIC50: six concentrations 1-100 µM, read-out: IC50 Hela
# Description: as §1, §2, §3, §4
# [4] = test system: human pancreatic cancer cell line SUIT-2; test: WST-8 antiproliferative assay, SUIT-2; format: cell-based; settings: SUIT-2, 100 µM, WST-8 assay, read-out: Growth Inhibition (GI%) SUIT-2
# Description: as §1, §2, §3, §5
# [5] = test system: human colorectal adenocarcinoma cell line DLD-1; test: WST-8 antiproliferative assay, DLD-1; format: cell-based; settings: DLD-1, 100 µM, WST-8 assay, read-out: Growth Inhibition (GI%) DLD-1
# Description: as §1, §2, §3, §5
# [6] = test system: human colorectal adenocarcinoma cell line DLD-1; test: WST-8 antiproliferative assay, DLD-1; format: cell-based; settings: WST-8 assay, six concentrations 1-100 µM
# [7] = test system: human pancreatic cancer cell line SUIT-2; test: WST-8 antiproliferative assay, SUIT-2; format: cell-based; settings: WST-8 assay, six concentrations 1-100 µM
Structure (SMILES),melting point,pIC50 [3],pIC50 [6],pIC50 [7],"pIC50 ([1]; six concentrations 1-100 µM, read-out: IC50 K562)",inhibition at 100 µM [1],inhibition at 100 µM [2],inhibition at 100 µM [3],inhibition at 100 µM [4],inhibition at 100 µM [5]
"COc1cc(C(C)=O)ccc1OC(=O)c1cc(-c2ccccc2)n(-c2ccccc2)n1 [Compound 7a, 4–Acetyl–2–methoxyphenyl 1,5–diphenyl–1H–pyrazole–3–carboxylate]",98 to 100 °C,,,,,0%,5%,55%,101%,0%
"COc1ccc(-c2cc(C(=O)Oc3ccc(C(C)=O)cc3OC)nn2-c2ccccc2)cc1 [Compound 7c, 4–Acetyl–2–methoxyphenyl–5–(4–methoxyphenyl) 1–phenyl–1H–pyrazole–3–carboxylate]",69 to 71 °C,,,,,48%,0%,52%,68%,0%
"COc1cc(C(C)=O)ccc1OC(=O)c1cc(-c2ccc(Cl)cc2)n(-c2ccccc2)n1 [Compound 7d, 4–Acetyl–2–methoxyphenyl–5–(4–chlorophenyl) 1–phenyl–1H–pyrazole–3–carboxylate]",85 to 87 °C,4.82,4.09,4.37,,50%,31%,104%,104%,72%
"COc1ccc(-c2cc(C(=O)Oc3ccc(C(C)=O)cc3OC)nn2-c2ccccc2)cc1OC [Compound 7e, 4–Acetyl–2–methoxyphenyl–5–(3,4–dimethoxyphenyl) 1–phenyl–1H–pyrazole–3–carboxylate]",74 to 76 °C,,,,,0%,14%,73%,101%,59.4%
"COc1cc(C(C)=O)ccc1OC(=O)c1cc(-c2ccccc2)n(-c2ccc(S(N)(=O)=O)cc2)n1 [Compound 7f, 4–Acetyl–2–methoxyphenyl–5–phenyl 1–(4–sulfamoylphenyl)–1H–pyrazole–3–carboxylate]",69 to 72 °C,,,,,24%,10%,16%,75%,18.6%
"COc1ccc(-c2cc(C(=O)Oc3ccc(C(C)=O)cc3OC)nn2-c2ccc(S(N)(=O)=O)cc2)cc1 [Compound 7h, 4–Acetyl–2–methoxyphenyl 5–(4–methoxyphenyl) 1–(4–sulfamoylphenyl)–1H–pyrazole–3–carboxylate]",80 to 83 °C,,,,,0%,0%,0%,73%,0%
"COc1cc(C(C)=O)ccc1OC(=O)c1cc(-c2ccc(Cl)cc2)n(-c2ccc(S(N)(=O)=O)cc2)n1 [Compound 7i, 4–Acetyl–2–methoxyphenyl–5–(4–chlorophenyl) 1–(4–sulfamoylphenyl)–1H–pyrazole–3–carboxylate]",71 to 74 °C,4.60,,4.04,4.03,101%,63%,101%,101%,46%
"COc1ccc(-c2cc(C(=O)Oc3ccc(C(C)=O)cc3OC)nn2-c2ccc(S(N)(=O)=O)cc2)cc1OC [Compound 7j, 4–Acetyl–2–methoxyphenyl–5–(3,4–dimethoxyphenyl) 1–(4–sulfamoylphenyl)–1H–pyrazole–3–carboxylate]",75 to 78 °C,,,,,11%,0%,10%,81%,0.1%

# More lines, main results first:
melting point,pIC50 [3],pIC50 [6],pIC50 [7],"pIC50 ([1]; six concentrations 1-100 µM, read-out: IC50 K562)",Structure (SMILES),inhibition at 100 µM [1],inhibition at 100 µM [2],inhibition at 100 µM [3],inhibition at 100 µM [4],inhibition at 100 µM [5]
132 to 135 °C,,,,,"COc1ccc(-c2cc(C(=O)Oc3ccc(/C(C)=N/O)cc3OC)nn2-c2ccccc2)cc1 [Compound 8c, (E)–4–(1–(Hydroxyimino)ethyl)–2–methoxyphenyl 5–(4–methoxyphenyl) 1–phenyl–1H–pyrazole–3–carboxylate]",67%,51%,78%,61%,0%
129 to 131 °C,,,,,"COc1ccc(-c2cc(C(=O)Oc3ccc(/C(C)=N/O)cc3OC)nn2-c2ccc(S(N)(=O)=O)cc2)cc1OC [Compound 8j, (E)–4–(1–(Hydroxyimino)ethyl)–2–methoxyphenyl 5–(3,4–dimethoxyphenyl)–1–(4–sulfamoylphenyl)–1H–pyrazole–3–carboxylate]",34%,60%,53%,79%,9.6%
81 to 83 °C,,,,,"CC(=O)c1ccc(NC(=O)c2cc(-c3ccccc3)n(-c3ccc(S(N)(=O)=O)cc3)n2)cc1 [Compound 9a, N–(4–Acetylphenyl)–5–phenyl–1–(4–sulfamoylphenyl)–1H–pyrazole–3–carboxamide]",66%,36%,9%,60%,60.7%
74 to 76 °C,,,,,"COc1ccc(-c2cc(C(=O)Nc3ccc(C(C)=O)cc3)nn2-c2ccc(S(N)(=O)=O)cc2)cc1 [Compound 9b, N–(4–Acetylphenyl)–5–(4–methoxyphenyl)–1–(4–sulfamoylphenyl)–1H–pyrazole–3–carboxamide]",31%,19%,0%,45%,42.1%
81 to 83 °C,,,,,"COc1ccc(-c2cc(C(=O)Nc3ccc(C(C)=O)cc3)nn2-c2ccc(S(N)(=O)=O)cc2)cc1OC [Compound 9c, N–(4–Acetylphenyl)–5–(3,4–dimethoxyphenyl)–1–(4–sulfamoylphenyl)–1H–pyrazole–3–carboxamide]",57%,22%,9%,42%,16.8%
